Values of other authors as cited in US20250241850A1, “BIOADHESIVE NASAL SPRAY COMPOSITION, PREPARATION METHOD AND USE” (Eurofarma Laboratórios S.A., priority 2022, published 2025).
Where a name gives a salt, the structure may show the parent alone.

Conditions: in vivo

## CN1C2CCCC1CC(NC(=O)c1nn(C)c3ccccc13)C2 (stereo not shown) [Granisetron hydrochloride]
  half-life: 3 to 4 h
